Measured values as given in US8338089B2, “Method of inhibiting lentiviral infectivity utilizing zinc chelation to inhibit Vif activity” (The Johns Hopkins University, priority 2006, dated 2012).
“And” between values parts separate entries of the source, which are not always exact repeats. Identical values can stand only once.

What was measured:
lentivirus = test: Inhibition in a method of the invention (lentiviral infectivity)
[1] = test system: virion incorporation of A3G; test: A3G levels in cells and virions, WT or ΔVif NL4-3 virus with A3G-myc; type: cell-based, HIV-1; conditions: 4 μM TPEN vs DMSO
Procedure: 293T cells were transfected with the indicated plasmids in the presence of 4 μM TPEN or control vehicle. Cell lysates were analyzed for A3G degradation by SDS-PAGE followed by immunoblotting for A3G-HA, Vif-myc, and ribosomal p19 as a loading control. […] 293T cells were transfected with the indicated plasmids and treated with […] TPEN or control vehicle. Vif-HA was immunoprecipitated from prepared lysates. Lysates were analyzed by SDS-PAGE followed by immunoblotting for Vif-HA and A3G-myc. […] Cells were infected with WT or ΔVif NL4-3 virus in the presence of A3G-myc and treated with 4 μM TPEN or DMSO. Cells were harvested and virus was isolated from the supernatant by ultracentrifugation and analyzed by SDS PAGE and immunoblotting against Vif, myc, and p24. […] Adenovirus E4orf6 mediated p53 degradation is not affected by 4 μM TPEN. 293T cells were transfected with p53 and E4orf6-myc expression vectors in the presence of 4 μM TPEN or control vehicle. Cells were harvested and analyzed for p53 degradation by SDS-PAGE followed by immunoblotting for p53, E4orf6-myc, and ribosomal p19 as a loading control.
Medium was removed 12 h prior to harvesting cells and replaced with either fresh medium alone or medium containing the indicated concentration of TPEN (Sigma). […]

[2] = test system: SIVagm Vif-Cul5 interaction; test: SIVagm Vif immunoprecipitation and immunoblot in 293T cells; type: cell-based; conditions: 4 μM TPEN vs vehicle DMSO
Procedure: (§1) Hydrophobic residues are represented by a Phi (Φ). […] 293T cells were transfected with the indicated SIV Vif expression vectors and treated with 4 μM TPEN. Cell lysates were immunoprecipitated and analyzed by SDS-PAGE followed immunoblotting for Cul5, HA, ElonginB, and ElonginC. […] 293T cells were transfected with SOCS-3-HA and treated with 4 μM TPEN. Cell lysates were immunoprecipitated and analyzed by SDS-PAGE and immunoblotting.
(§2) Medium was removed 12 h prior to harvesting cells and replaced with either fresh medium alone or medium containing the indicated concentration of TPEN (Sigma). After a 12-h incubation, the cells were harvested for immunoprecipitation and immunoblot analysis, or the medium was collected for MAGI assay.
(§3) Transfected 293T cells were harvested, washed twice with cold PBS, and lysed in lysis buffer (50 mM Tris, pH 7.5, with 150 mM NaCl, 1% Triton X-100, and complete protease inhibitor cocktail tablets) at 4° C. for 1 h, then centrifuged at 10,000×g for 30 min. For myc-tag immunoprecipitation, precleared cell lysates were mixed with anti-myc antibody (Upstate) and incubated with protein G at 4° C. for 3 h. […] The eluted materials were then analyzed by SDS-PAGE and immunoblotting as previously described (Yu et al. (2003) (supra)). […]

[3] = test system: Rbx function (E4orf6 mediated p53 degradation); test: Adenovirus E4orf6 mediated p53 degradation in 293T cells (Rbx function); type: cell-based; conditions: 4 μM TPEN
Procedure: (§4) 293T cells were transfected with the indicated plasmids in the presence of 4 μM TPEN or control vehicle. Cell lysates were analyzed for A3G degradation by SDS-PAGE followed by immunoblotting for A3G-HA, Vif-myc, and ribosomal p19 as a loading control. […] 293T cells were transfected with the indicated plasmids and treated with […] TPEN or control vehicle. Vif-HA was immunoprecipitated from prepared lysates. Lysates were analyzed by SDS-PAGE followed by immunoblotting for Vif-HA and A3G-myc. […] Cells were infected with WT or ΔVif NL4-3 virus in the presence of A3G-myc and treated with 4 μM TPEN or DMSO. Cells were harvested and virus was isolated from the supernatant by ultracentrifugation and analyzed by SDS PAGE and immunoblotting against Vif, myc, and p24. […] Adenovirus E4orf6 mediated p53 degradation is not affected by 4 μM TPEN. […] Cells were harvested and analyzed for p53 degradation by SDS-PAGE followed by immunoblotting for p53, E4orf6-myc, and ribosomal p19 as a loading control. […]
as §3, with “min.” for “min. For myc-tag immunoprecipitation, precleared cell lysates were mixed with anti-myc antibody (Upstate) and incubated with protein G at 4° C. for 3 h.”

Vif-A3G interaction = target: T1, Vif-A3G interaction (Human immunodeficiency virus type 1 group M subtype B, UniProt P69723); test: Vif-A3G co-immunoprecipitation in 293T cells; type: cell-based, HIV-1; conditions: 4 μM TPEN vs control vehicle
T1 construct: expressed in transfected cells; host or cells: 293T
Procedure: as §4
as §3, with “min.” for “min. For myc-tag immunoprecipitation, precleared cell lysates were mixed with anti-myc antibody (Upstate) and incubated with protein G at 4° C. for 3 h.”

[4] = target: T2, HIV-1 Vif-Cul5 interaction (Human immunodeficiency virus type 1 group M subtype B, UniProt P69723); test: Vif-HA immunoprecipitation and immunoblot for Cul5, ElonginB, ElonginC in Vif-expressing 293T cells; type: cell-based
T2 construct: expressed in transfected cells; host or cells: 293T
Procedure: The Cul5-Vif E3 ubiquitin ligase binds A3G and brings it in close proximity with the E2 ubiquitin conjugating enzyme. Polyubiquitinated A3G is recognized by the proteasome and subsequently degraded. […] 293T cells were transfected with Vif-HA expression vectors as previously described and treated with the indicated amounts of TPEN. Vif-HA was immunoprecipitated and eluted materials were then analyzed by SDS-PAGE and immunoblotting for Cul5, Vif-HA, ElonginB, and ElonginC. […] 293T cells were transfected with Vif-HA and treated with the indicated amounts of TPEN. Cell lysates were harvested and analyzed by SDS-PAGE and immunoblotting for Cul5 and Vif-HA.
as §2
Transfected 293T cells were harvested, washed twice with cold PBS, and lysed in lysis buffer (50 mM Tris, pH 7.5, with 150 mM NaCl, 1% Triton X-100, and complete protease inhibitor cocktail tablets) at 4° C. for 1 h, then centrifuged at 10,000×g for 30 min. For myc-tag immunoprecipitation, precleared cell lysates were mixed with anti-myc antibody (Upstate) and incubated with protein G at 4° C. for 3 h. For HA tag immunoprecipitation, precleared cell lysates were mixed with anti-HA antibody-conjugated agarose beads (Roche) and incubated at 4° C. for 3 h. Samples were then washed three times with washing buffer (20 mM Tris, pH 7.5, with 100 mM NaCl, 0.1 mM EDTA, and 0.05% Tween-20). The beads were eluted with elution buffer (0.1 M glycine-HCl, pH 2.0) or 2× loading buffer. The eluted materials were then analyzed by SDS-PAGE and immunoblotting as previously described (Yu et al. (2003) (supra)).

[5] = test system: SIVsyk Vif-Cul5 interaction; test: SIVsyk Vif immunoprecipitation and immunoblot in 293T cells; type: cell-based; conditions: 4 μM TPEN vs vehicle DMSO
Procedure: as §1, §2, §3

[6] = test system: NL4-3 virus infectivity in MAGI cells; test: MAGI assay of virus infectivity, virus produced in 293T or 293T-A3G cells; type: cell-based, HIV-1
Procedure: MAGI cells were infected with wild-type or Vif deficient NL4-3 produced in the absence or presence of A3G and […] TPEN as indicated. Relative infectivity was calculated by setting wild type virus infectivity to 100% (lane 1).
293T and MAGI-CCR5 cells (Chackerian et al. (1997) J Virol 71, 3932-3939) were maintained and transfected or infected as previously described (Yu et al. (2003) (supra)). The MAGI assay was performed as described previously and the antibodies used in this study have been described: anti-HA antibody-agarose conjugate, anti-myc antibody-agarose conjugate, anti-Vif, anti-Elongin B, anti-Elongin C, anti-Myc, anti-HA, and anti-human ribosomal P antigens (Yu et al. (2003) (supra)). The anti-p53 mouse mAb was obtained from Oncogene Research Products (Cat. #OP03).
as §2
In order to assess the biological relevance of the zinc requirement in Vif-Cul5 interaction and assess whether A3G retained antiviral function in the presence of 7 μM TPEN, we studied the effect of TPEN on virus infectivity. MAGI cells were infected with wild type or Vif deficient virus produced in 293T or 293T-A3G cells in the presence of 7 μM TPEN or control DMSO. We set the infectivity of WT virus in the absence of A3G to 100%, and calculated the relative infectivity under all treated conditions (FIG. 4). As expected, in the presence of A3G and the absence of Vif, there was a drastic decrease of infectivity to 8% (FIG. 4, lane 4). However in the presence of Vif, A3G was neutralized resulting in 91% infectivity (FIG. 4, lane 3). One would expect zinc chelation to have an effect on virus infectivity independent of Vif function. We observed a modest decrease in infectivity, of about 15% even in the absence of A3G (FIG. 4, lanes, 5 and 6). […]

Cul5-SOCS-3 E3 ligase = target: T3, Cul5-SOCS-3 E3 ligase (Homo sapiens, UniProt O14543); test: SOCS-3-HA immunoprecipitation and immunoblot in 293T cells; type: cell-based; conditions: 4 μM TPEN vs control DMSO
T3 construct: expressed in transfected cells; host or cells: 293T
T3 sequence (O14543 1-225): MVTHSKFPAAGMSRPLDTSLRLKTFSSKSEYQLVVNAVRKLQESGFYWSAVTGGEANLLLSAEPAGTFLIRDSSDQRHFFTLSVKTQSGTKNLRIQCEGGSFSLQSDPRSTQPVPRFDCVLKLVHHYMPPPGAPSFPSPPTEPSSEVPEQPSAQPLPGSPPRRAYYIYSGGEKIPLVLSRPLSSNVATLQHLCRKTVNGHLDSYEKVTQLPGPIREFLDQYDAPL
Procedure: as §1, §2, §3

[7] = test system: HIV-1 Vif mediated A3G degradation; test: Vif mediated A3G degradation in transfected 293T cells (immunoblot); type: cell-based
Procedure: as §4
as §3, with “min.” for “min. For myc-tag immunoprecipitation, precleared cell lysates were mixed with anti-myc antibody (Upstate) and incubated with protein G at 4° C. for 3 h.”

T2 sequence (Q15370 whole entry): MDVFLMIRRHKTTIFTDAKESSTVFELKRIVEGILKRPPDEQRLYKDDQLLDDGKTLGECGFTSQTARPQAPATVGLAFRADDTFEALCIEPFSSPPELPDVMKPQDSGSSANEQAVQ
T2 sequence (Q15369 whole entry, further chain): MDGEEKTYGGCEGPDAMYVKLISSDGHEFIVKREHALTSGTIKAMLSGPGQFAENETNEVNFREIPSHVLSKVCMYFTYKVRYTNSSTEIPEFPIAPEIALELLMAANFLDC
T2 sequence (Q13951 whole entry, further chain): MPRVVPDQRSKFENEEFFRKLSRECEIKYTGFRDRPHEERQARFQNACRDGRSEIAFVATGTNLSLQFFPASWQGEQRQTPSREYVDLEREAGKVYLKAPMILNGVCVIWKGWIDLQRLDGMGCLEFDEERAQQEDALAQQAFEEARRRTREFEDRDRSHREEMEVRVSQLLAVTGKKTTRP
T2 sequence (P69723 whole entry): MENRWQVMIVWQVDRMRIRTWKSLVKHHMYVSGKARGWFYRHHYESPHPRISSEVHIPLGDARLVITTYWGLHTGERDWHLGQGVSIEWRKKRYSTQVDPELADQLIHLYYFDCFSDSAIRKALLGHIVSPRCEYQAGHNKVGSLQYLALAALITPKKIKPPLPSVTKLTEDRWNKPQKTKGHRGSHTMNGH
T1 sequence (Q9HC16 whole entry): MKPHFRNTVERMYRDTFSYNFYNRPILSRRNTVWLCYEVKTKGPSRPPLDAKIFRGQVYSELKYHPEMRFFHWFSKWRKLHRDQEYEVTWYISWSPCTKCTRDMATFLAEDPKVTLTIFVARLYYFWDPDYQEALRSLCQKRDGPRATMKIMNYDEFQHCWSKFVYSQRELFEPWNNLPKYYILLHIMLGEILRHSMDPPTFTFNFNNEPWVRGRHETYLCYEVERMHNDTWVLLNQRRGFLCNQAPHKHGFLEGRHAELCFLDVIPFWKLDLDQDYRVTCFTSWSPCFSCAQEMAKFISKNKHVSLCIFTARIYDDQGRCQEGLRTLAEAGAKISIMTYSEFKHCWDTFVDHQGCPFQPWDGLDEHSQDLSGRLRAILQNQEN
T1 sequence (P69723 whole entry): as the sequence (P69723 whole entry) above
T1 sequence (Q13951 whole entry, further chain): as the sequence (Q13951 whole entry, further chain) above
T1 sequence (Q15369 whole entry, further chain): as the sequence (Q15369 whole entry, further chain) above
T1 sequence (Q15370 whole entry, further chain): as the sequence (Q15370 whole entry) above

Row | Compound | effectiveness as inhibitor in a method of the invention (lentivirus) | A3G incorporation into virions in the presence of Vif [1] | cellular A3G protein levels in the presence of Vif [1] | Cul5 co-immunoprecipitation with SIVagm Vif [2] | ElonginB and ElonginC detected with SIVagm Vif [2] | p53 levels in the presence of E4orf6 [3] | effect on Vif-A3G interaction (Vif-A3G interaction) | effect on cellular Cul5 protein levels ([4]; 293T cells transfected with Vif-HA, cell lysates) | IC50 ([4]; IC50, decrease of Cul5-Vif interaction, Vif-expressing 293T cells, increasing concentrations of TPEN, 12-h incubation) | interaction of Vif with ElonginB and ElonginC ([4]; Vif-expressing 293T cells, increasing concentrations of TPEN) | Cul5 co-immunoprecipitation with SIVsyk Vif [5] | ElonginB and ElonginC detected with SIVsyk Vif [5] | decrease in infectivity in the absence of A3G ([6]; 7 μM TPEN on producer cells, relative to WT virus without A3G = 100%) | infectivity loss in the presence of A3G and Vif ([6]; 7 μM TPEN on producer cells, relative to WT virus without A3G = 100%, 91% infectivity without TPEN) | effect on A3G function ([6]; 7 μM TPEN, FIG. 4 lanes 7 and 8) | interaction of SOCS-3 with Cul5 (Cul5-SOCS-3 E3 ligase) | A3G expression or stability in the absence of HIV-1 Vif ([7]; 4 μM TPEN) | A3G degradation induced by HIV-1 Vif ([7]; 4 μM TPEN vs control vehicle)
1 | Oc1ccc(O)c(Cl)c1 [Chloroquinol] | not an effective inhibitor |  |  |  |  |  |  |  |  |  |  |  |  |  |  |  |  | 
2 | c1ccc(CN(CCN(Cc2ccccn2)Cc2ccccn2)Cc2ccccn2)nc1 [TPEN, N,N,N′,N′-Tetrakis-(2-pyridylmethyl)ethylenediamine] |  | enhancing incorporation | increased | marked decrease | equal amounts | declined | no effect | did not have any effect | ~1790 nM and 1790 nM | remained constant | marked decrease | equal amounts | about 15% | about 87% | no effect | equal interaction | no effect | abolished
